This passage reports inhibition results from patent publication US20250213701A1, “MEDICAMENT FOR TREATING HUMAN TUMOR BASED ON ERF3A-TARGETING PROTEOLYSIS MECHANISM” (SUZHOU DEGEN BIO-MEDICAL CO., LTD., priority 2022, published 2025).

The test relates to AGS cells. In words: Anti-proliferative toxicity of C63 in tumor cell lines (CCK8): AGS. The note with it: Homo sapiens, 72 h, 3 days, read-out: Inhibition rate. It is filed as cell-based. The procedure:
Example 83: Detection of Anti-Proliferative Toxicity of C63 in Some Tumor Cell Lines
AGS cells (purchased from the Cell Bank of the Chinese Academy of Sciences, Cat. No. TCHu232) were subcultured in a culture medium (F12K medium+[…] dual-antibiotic solution+10% fetal bovine serum) in an incubator at […] and 37° C.
AGS cells were seeded at 2000 cells/well (90 μL) on a 96-well plate and cultured for 24 h.
10 mM compound stock solutions were prepared in DMSO.
The compound stock solution was diluted with DMSO to give DMSO solutions 1-9 at concentrations of 0 μM, 2500 μM, 500 μM, 100 μM, 20 μM, 4 μM, 0.8 μM, 0.16 μM, and 0.032 μM.
2 μL of each of solutions 1-9 was added to 98 μL of the medium to give mixed solutions 11-19 of the compound and the medium.
10 μL of each of solutions 11-19 was added to the above cell seed solution to give a total volume of 100 μL (90 μL+10 μL).
The concentrations of the compound in the wells were 0 μM, 5.0 μM, 1.0 μM, 0.2 μM, 0.04 μM, 0.008 μM, 0.0016 μM, 0.00032 μM, and 0.000064 μM. All concentrations were in triplicate.
After the above-treated cells were cultured for 3 days, 10 μL of the CCK8 solution (DOJINDO, Cat. No. PF725) was added to each well. The plate was incubated in an incubator at 37° C. for 1-4 h and then detected on a microplate reader for the reading at 450 nm.

Consider `C[C@]12C=CC(=O)N[C@@H]1CC[C@@H]1[C@@H]2CC[C@]2(C)[C@@H](C(=O)Nc3cccc(N[C@@H]4CCC[C@@H](Nc5cccc6c5C(=O)N([C@H]5CCC(=O)NC5=O)C6=O)C4)c3)CC[C@@H]12` [C63, N-(3-(N—(N-(4-(2-(3S-(2,6-dioxopiperidine))-isoindole-1,3-dione))-1R,3R-cyclohexanediamine))phenyl)-3-oxo-4-aza-5α-androst-1-ene-17β-carboxamide], for which, under “0.000064 μM”, the inhibition (in general, how much of the control response was suppressed) at 64 pM is 17.5%. Also, the inhibition at 0.00032 µM (0.000320 μM) was 11.1%. The inhibition at 0.0016 µM (0.001600 μM) stood at 20.4%. Also, the inhibition at 0.008 µM (0.008000 μM) turned out to be 44.2%. For the same compound, the inhibition at 0.04 µM (0.040000 μM) was 59.7%. Also, where the note is “0.200000 μM”, the inhibition at 0.2 µM was 74%. Further, the inhibition at 1 µM (1.000000 μM) worked out at 79.8%. In addition, the inhibition at 5 µM (5.000000 μM) worked out at 80.8%.
